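Compound exposure: 48 hours, 5 concentrations, 96-well plates. At the GI50, growth is halved.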 Activity calls are given as the source filed them. Cut-off read from the data, not from the text of the source: active = GI50 up to about 1.1 µM and inactive = higher.
Assays:
Assay in all cases: NCI-60 cell line screen, 48 h
786-0 = tested on: 786-0
A498 = tested on: A498
ACHN = tested on: ACHN
BT-549 = tested on: BT-549
CAKI-1 = tested on: CAKI-1
CCRF-CEM = tested on: CCRF-CEM
COLO 205 = tested on: COLO 205
DU-145 = tested on: DU-145
EKVX = tested on: EKVX
HCT-116 = tested on: HCT-116
HCT-15 = tested on: HCT-15
HL-60 = tested on: HL-60
HOP-62 = tested on: HOP-62
HT-29 = tested on: HT-29
Hs-578T = tested on: Hs-578T
IGROV-1 = tested on: IGROV-1
K562 = tested on: K562
KM12 = tested on: KM12
LOX IMVI = tested on: LOX IMVI
M14 = tested on: M14
MCF7 = tested on: MCF7
MDA-MB-231 = tested on: MDA-MB-231
MDA-MB-435 = tested on: MDA-MB-435
MDA-N = tested on: MDA-N
MOLT-4 = tested on: MOLT-4
Malme-3M = tested on: Malme-3M
NCI-H226 = tested on: NCI-H226
NCI-H23 = tested on: NCI-H23
NCI-H460 = tested on: NCI-H460
NCI/ADR-RES = tested on: NCI/ADR-RES
OVCAR-3 = tested on: OVCAR-3
OVCAR-5 = tested on: OVCAR-5
OVCAR-8 = tested on: OVCAR-8
PC-3 = tested on: PC-3
RPMI-8226 = tested on: RPMI-8226
RXF 393 = tested on: RXF 393
SF-268 = tested on: SF-268
SF-295 = tested on: SF-295
SF-539 = tested on: SF-539
SK-MEL-2 = tested on: SK-MEL-2
SK-MEL-5 = tested on: SK-MEL-5
SK-OV-3 = tested on: SK-OV-3
SN12C = tested on: SN12C
SNB-19 = tested on: SNB-19
SNB-75 = tested on: SNB-75
SR = tested on: SR
SW-620 = tested on: SW-620
T47D = tested on: T47D
TK-10 = tested on: TK-10
U-251 = tested on: U-251
UACC-257 = tested on: UACC-257
UACC-62 = tested on: UACC-62
UO-31 = tested on: UO-31
A549 = tested on: A549
HCC 2998 = tested on: HCC 2998
HOP-92 = tested on: HOP-92
NCI-H522 = tested on: NCI-H522
OVCAR-4 = tested on: OVCAR-4
SK-MEL-28 = tested on: SK-MEL-28

COC(=O)C1=COc2c(n(C)c3ccccc23)-c2ccccc21
GI50 (786-0): > 100 µM (inactive)
GI50 (A498): > 100 µM (inactive)
GI50 (ACHN): 74 µM (inactive)
GI50 (BT-549): > 100 µM (inactive)
GI50 (CAKI-1): > 100 µM (inactive)
GI50 (CCRF-CEM): > 100 µM (inactive)
GI50 (COLO 205): > 100 µM (inactive)
GI50 (DU-145): > 100 µM (inactive)
GI50 (EKVX): > 100 µM (inactive)
GI50 (HCT-116): > 100 µM (inactive)
GI50 (HCT-15): > 100 µM
GI50 (HL-60): > 100 µM (inactive)
GI50 (HOP-62): > 100 µM (inactive)
GI50 (HT-29): > 100 µM (inactive)
GI50 (Hs-578T): > 100 µM (inactive)
GI50 (IGROV-1): 20.2 µM (inactive)
GI50 (K562): > 100 µM (inactive)
GI50 (KM12): > 100 µM (inactive)
GI50 (LOX IMVI): > 100 µM (inactive)
GI50 (M14): > 100 µM (inactive)
GI50 (MCF7): > 100 µM (inactive)
GI50 (MDA-MB-231): > 100 µM (inactive)
GI50 (MDA-MB-435): > 100 µM (inactive)
GI50 (MDA-N): > 100 µM (inactive)
GI50 (MOLT-4): > 100 µM (inactive)
GI50 (Malme-3M): > 100 µM (inactive)
GI50 (NCI-H226): > 100 µM (inactive)
GI50 (NCI-H23): > 100 µM (inactive)
GI50 (NCI-H460): > 100 µM (inactive)
GI50 (NCI/ADR-RES): > 100 µM (inactive)
GI50 (OVCAR-3): > 100 µM (inactive)
GI50 (OVCAR-5): > 100 µM (inactive)
GI50 (OVCAR-8): > 100 µM (inactive)
GI50 (PC-3): > 100 µM (inactive)
GI50 (RPMI-8226): 97.3 µM (inactive)
GI50 (RXF 393): > 100 µM (inactive)
GI50 (SF-268): > 100 µM (inactive)
GI50 (SF-295): > 100 µM (inactive)
GI50 (SF-539): 81.1 µM (inactive)
GI50 (SK-MEL-2): > 100 µM (inactive)
GI50 (SK-MEL-5): 71.1 µM (inactive)
GI50 (SK-OV-3): > 100 µM (inactive)
GI50 (SN12C): > 100 µM (inactive)
GI50 (SNB-19): > 100 µM (inactive)
GI50 (SNB-75): 27.6 µM (inactive)
GI50 (SR): 4.21 µM (inactive)
GI50 (SW-620): > 100 µM (inactive)
GI50 (T47D): > 100 µM (inactive)
GI50 (TK-10): > 100 µM (inactive)
GI50 (U-251): > 100 µM (inactive)
GI50 (UACC-257): > 100 µM (inactive)
GI50 (UACC-62): > 100 µM (inactive)
GI50 (UO-31): > 100 µM (inactive)

NC(=O)C(NC=O)c1ccccc1 (centres undefined)
GI50 (786-0): > 100 µM (inactive)
GI50 (A549): > 100 µM (inactive)
GI50 (ACHN): > 100 µM (inactive)
GI50 (BT-549): > 100 µM (inactive)
GI50 (CAKI-1): > 100 µM (inactive)
GI50 (CCRF-CEM): > 100 µM (inactive)
GI50 (COLO 205): > 100 µM (inactive)
GI50 (DU-145): > 100 µM (inactive)
GI50 (EKVX): > 100 µM (inactive)
GI50 (HCC 2998): > 100 µM (inactive)
GI50 (HCT-116): > 100 µM (inactive)
GI50 (HCT-15): > 100 µM
GI50 (HL-60): > 100 µM (inactive)
GI50 (HOP-62): > 100 µM (inactive)
GI50 (HOP-92): > 100 µM (inactive)
GI50 (HT-29): > 100 µM (inactive)
GI50 (Hs-578T): > 100 µM (inactive)
GI50 (IGROV-1): > 100 µM (inactive)
GI50 (K562): > 100 µM (inactive)
GI50 (KM12): > 100 µM (inactive)
GI50 (LOX IMVI): > 100 µM (inactive)
GI50 (M14): > 100 µM (inactive)
GI50 (MCF7): > 100 µM (inactive)
GI50 (MDA-MB-231): > 100 µM (inactive)
GI50 (MDA-MB-435): > 100 µM (inactive)
GI50 (MDA-N): > 100 µM (inactive)
GI50 (MOLT-4): > 100 µM (inactive)
GI50 (NCI-H23): > 100 µM (inactive)
GI50 (NCI-H460): > 100 µM (inactive)
GI50 (NCI-H522): > 100 µM (inactive)
GI50 (NCI/ADR-RES): > 100 µM (inactive)
GI50 (OVCAR-3): > 100 µM (inactive)
GI50 (OVCAR-4): > 100 µM (inactive)
GI50 (OVCAR-8): > 100 µM (inactive)
GI50 (PC-3): > 100 µM (inactive)
GI50 (RXF 393): > 100 µM (inactive)
GI50 (SF-268): > 100 µM (inactive)
GI50 (SF-295): > 100 µM (inactive)
GI50 (SF-539): > 100 µM (inactive)
GI50 (SK-MEL-28): > 100 µM (inactive)
GI50 (SK-MEL-5): > 100 µM (inactive)
GI50 (SK-OV-3): > 100 µM (inactive)
GI50 (SN12C): > 100 µM (inactive)
GI50 (SNB-19): > 100 µM (inactive)
GI50 (SNB-75): > 100 µM (inactive)
GI50 (SR): > 100 µM (inactive)
GI50 (SW-620): > 100 µM (inactive)
GI50 (T47D): > 100 µM (inactive)
GI50 (TK-10): > 100 µM (inactive)
GI50 (U-251): > 100 µM (inactive)
GI50 (UACC-257): > 100 µM (inactive)
GI50 (UACC-62): > 100 µM (inactive)
GI50 (UO-31): > 100 µM (inactive)

N/C(S)=N/N=C/c1cc(CN2CCOCC2)c(N)cn1
GI50 (786-0): 65.2 µM (inactive)
GI50 (A498): 37 µM (inactive)
GI50 (ACHN): 14.1 µM (inactive)
GI50 (BT-549): 78.5 µM (inactive)
GI50 (CAKI-1): 45.7 µM (inactive)
GI50 (CCRF-CEM): 40.1 µM (inactive)
GI50 (COLO 205): 26.8 µM (inactive)
GI50 (DU-145): 28.6 µM (inactive)
GI50 (EKVX): 63.1 µM (inactive)
GI50 (HCT-116): 61.8 µM (inactive)
GI50 (HCT-15): 15 µM
GI50 (HL-60): 48.2 µM (inactive)
GI50 (HOP-62): 30.3 µM (inactive)
GI50 (HT-29): 50.2 µM (inactive)
GI50 (Hs-578T): > 100 µM (inactive)
GI50 (IGROV-1): 50.5 µM (inactive)
GI50 (K562): 89.5 µM (inactive)
GI50 (KM12): 23.6 µM (inactive)
GI50 (LOX IMVI): 29.9 µM (inactive)
GI50 (M14): 18.7 µM (inactive)
GI50 (MCF7): 31.4 µM (inactive)
GI50 (MDA-MB-231): 48.1 µM (inactive)
GI50 (MDA-MB-435): 70.3 µM (inactive)
GI50 (MDA-N): 56.1 µM (inactive)
GI50 (MOLT-4): 48.1 µM (inactive)
GI50 (Malme-3M): 31.3 µM (inactive)
GI50 (NCI-H226): 12.7 µM (inactive)
GI50 (NCI-H23): 39.4 µM (inactive)
GI50 (NCI-H460): 38.4 µM (inactive)
GI50 (NCI/ADR-RES): 31 µM (inactive)
GI50 (OVCAR-3): 27.7 µM (inactive)
GI50 (OVCAR-5): 60.3 µM (inactive)
GI50 (OVCAR-8): 18.5 µM (inactive)
GI50 (PC-3): 56.9 µM (inactive)
GI50 (RPMI-8226): 79.8 µM (inactive)
GI50 (RXF 393): > 100 µM (inactive)
GI50 (SF-268): 23.6 µM (inactive)
GI50 (SF-295): 36 µM (inactive)
GI50 (SF-539): 27.5 µM (inactive)
GI50 (SK-MEL-2): 84.3 µM (inactive)
GI50 (SK-MEL-5): 35.2 µM (inactive)
GI50 (SK-OV-3): 53 µM (inactive)
GI50 (SN12C): 62.4 µM (inactive)
GI50 (SNB-19): 47.1 µM (inactive)
GI50 (SNB-75): 25 µM (inactive)
GI50 (SR): 44.4 µM (inactive)
GI50 (SW-620): 62.1 µM (inactive)
GI50 (T47D): 85.9 µM (inactive)
GI50 (TK-10): 43.4 µM (inactive)
GI50 (U-251): 56.8 µM (inactive)
GI50 (UACC-257): 28.6 µM (inactive)
GI50 (UACC-62): 42.4 µM (inactive)
GI50 (UO-31): 28.2 µM (inactive)

From ChEMBL document CHEMBL1201862, “PubChem BioAssay data set” (2004)
